Data: patent publication US20240400564A1 (Syndax Pharmaceuticals, Inc, priority 2021, published 2024)

Test system: MLLr leukemia cell line MV4-11
Assay: Cell proliferation assay MV4;11 (CellTiter-Glo, 72 hours)
Type: cell-based
Details: Homo sapiens; MV4-11 cells, 72 hours, CellTiter-Glo; read-out: MV4; 11 IC50
Experimental: Compounds were evaluated for its capacity to inhibit the proliferation of the MLLr leukemia cell line MV4-11 that harbors an MLL1-AF4 fusion protein. MV4-11 cells were cultured for 72 hours with limiting dilutions of compounds and viability was measured using CellTiter-Glo.
Compounds were dissolved to obtain as 10 mM solution in DMSO. The stock was diluted 1:5 to the top concentration of 2 mM in 100% DMSO. For IC50 determination, serial 1:3.16 dilutions were prepared in 100% DMSO by diluting 20 μL into 43.5 μL of DMSO for 8 concentrations. Each prepared DMSO solution were further diluted 1:500 in the cell culture media to obtain the 2× dosing solutions. The final concentrations of tested compounds in the cell culture media ranged from 0.632 nM to 2000 nM.
MV4-11 cells were cultured in IMDM with 10% FBS and 1× Penicillin-Streptomycin at 5% CO2 and 37° C. A cell suspension was prepared containing 15,000 cells/ml in the culture medium and 100 μL of this suspension was added per well to a 96-well cell culture plate. Then, 100 μL of 2× dosing media containing test compounds were added bringing the total volume to 200 μL. These cells were cultured for 72 hours at 37° C. and 5% CO2 in a humidified incubator.
After 72 hours, the cultured cells were mixed and 100 μL was transferred to a 96-well black plate. Cell Titer Glo (100 μl) was then added to this plate. The plate was mixed with shaking for 15 mins at RT, the luminescence was then measured using Tecan Spark 20M spectrophotometer. Cell Viability (%) was determined by RLU of test/RLU average vehicle control*100 and % max inhibition was determined by 100−(% cell viability remaining at the top concentration of compound).

SMILES	IC50 [nM]
CC(C)N(C)C(=O)c1cc(F)ccc1Oc1cncnc1N1CC2(CCN(C[C@@H]3CC[C@@H](NS(=O)(=O)c4ccn(C)n4)CO3)CC2)C1 [Example 53, Fluoro-N-isopropyl-N-methyl-2-((4-(7-(((2S,5R)-5-((1-methyl-1H-pyrazole)-3-sulfonamido)tetrahydro-2H-pyran-2-yl)methyl)-2,7-diazaspiro[3.5]nonan-2-yl)pyrimidin-5-yl)oxy)benzamide]	< 100
CC(C)N(C(=O)c1cc(F)ccc1Oc1cncnc1N1CC2(CCN(C[C@@H]3CC[C@@H](NS(C)(=O)=O)CO3)CC2)C1)C1CC(F)(F)C1 [Example 112, N-(3,3-Difluorocyclobutyl)-5-fluoro-N-isopropyl-2-((4-(7-(((2S,5R)-5-(methylsulfonamido)tetrahydro-2H-pyran-2-yl)methyl)-2,7-diazaspiro[3.5]nonan-2-2-yl)pyrimidin-5-yl)oxy)benzamide]	< 100
CCN(C(=O)c1cc(F)ccc1Oc1cncnc1N1CC2(CCN(C[C@@H]3CC[C@@H](NS(=O)(=O)c4ccc(=O)n(C)c4)CO3)CC2)C1)C(C)C [Example 74, N-Ethyl-5-fluoro-N-isopropyl-2-((4-(7-(((2S,5R)-5-((1-methyl-6-oxo-1,6-dihydropyridine)-3-sulfonamido)tetrahydro-2H-pyran-2-yl)methyl)-2,7-diazaspiro[3.5]nonan-2-yl)pyrimidin-5-yl)oxy)benzamide]	< 100
CCn1cc(S(=O)(=O)N[C@@H]2CC[C@@H](CN3CCC4(CC3)CN(c3ncncc3Oc3ccc(F)cc3C(=O)N(CC(F)F)C(C)C)C4)OC2)cn1 [Example 106, N-(2,2-Difluoroethyl)-2-((4-(7-(((2S,5R)-5-((1-ethyl-1H-pyrazole)-4-sulfonamido)tetrahydro-2H-pyran-2-yl)methyl)-2,7-diazaspiro[3.5]nonan-2-yl)pyrimidin-5-yl)oxy)-5-fluoro-N-isopropylbenzamide]	< 100
Cc1nc(S(=O)(=O)N[C@@H]2CC[C@@H](CN3CCC4(CC3)CN(c3ncncc3Oc3ccc(F)cc3C(=O)N(C(C)C)[C@H]3CCOC3)C4)OC2)cs1 [Example 135, 5-Fluoro-N-isopropyl-2-((4-(7-(((2S,5R)-5-((2-methylthiazole)-4-sulfonamido)tetrahydro-21H-pyran-2-yl)methyl)-2,7-diazaspiro[3.5]nonan-2-yl)pyrimidin-5-yl)oxy)-N-((S)-tetrahydrofuran-3-yl)benzamide]	< 100
Cc1ncc(S(=O)(=O)N[C@@H]2CC[C@@H](CN3CCC4(CC3)CN(c3ncncc3Oc3ccc(F)cc3C(=O)N(C(C)C)C(C)C)C4)OC2)[nH]1 [Example 234, 5-Fluoro-N,N-diisopropyl-2-((4-(7-(((2S,5R)-5-((2-methyl-1H-imidazole)-5-sulfonamido)tetrahydro-2H-pyran-2-yl)methyl)-2,7-diazaspiro[3.5]nonan-2-yl)pyrimidin-5-yl)oxy)benzamide]	< 100
CC(C)N(C(=O)c1cc(F)ccc1Oc1cncnc1N1CC2(CCN(C[C@@H]3CC[C@@H](NS(=O)(=O)N4CCC[C@@H]4C)CO3)CC2)C1)[C@@H]1CCOC1 [Example 205, 5-Fluoro-N-isopropyl-2-((4-(7-(((2S,5R)-5-(((S)-2-methylpyrrolidine)-1-sulfonamido)tetrahydro-2H-pyran-2-yl)methyl)-2,7-diazaspiro[3.5]nonan-2-yl)pyrimidin-5-yl)oxy)-N-((R)-tetrahydrofuran-3-yl)benzamide]	< 100
COC[C@@H]1CCCN1S(=O)(=O)N[C@@H]1CC[C@@H](CN2CCC3(CC2)CN(c2ncncc2Oc2ccc(F)cc2C(=O)N(C(C)C)C(C)C)C3)OC1 [Example 213, 5-Fluoro-N,N-diisopropyl-2-((4-(7-(((2S,5R)-5-(((S)-2-(methoxymethyl)pyrrolidine)-1-sulfonamido)tetrahydro-2H-pyran-2-yl)methyl)-2,7-diazaspiro[3.5]nonan-2-yl)pyrimidin-5-yl)oxy)benzamide]	< 100
Cc1nc(S(=O)(=O)N[C@@H]2CC[C@@H](CN3CCC4(CC3)CN(c3ncncc3Oc3ccc(F)cc3C(=O)N(C)C(C)C)C4)OC2)cs1 [Example 54, 5-Fluoro-N-isopropyl-N-methyl-2-((4-(7-(((2S,5R)-5-((2-methylthiazole)-4-sulfonamido)tetrahydro-2H-pyran-2-yl)methyl)-2,7-diazaspiro[3.5]nonan-2-yl)pyrimidin-5-yl)oxy)benzamide]	< 100
CCN(C(=O)c1cc(F)ccc1Oc1cncnc1N1CC2(CCN(C[C@@H]3CC[C@@H](NS(=O)(=O)C4CCOCC4)CO3)CC2)C1)C(C)C [Example 67, N-Ethyl-5-fluoro-N-isopropyl-2-((4-(7-(((2S,5R)-5-((tetrahydro-2H-pyran)-4-sulfonamido)tetrahydro-2H-pyran-2-yl)methyl)-2,7-diazaspiro[3.5]nonan-2-yl)pyrimidin-5-yl)oxy)benzamide]	< 100
CC(C)N(C(=O)c1cc(F)ccc1Oc1cncnc1N1CC2(CCN(C[C@@H]3CC[C@@H](NS(=O)(=O)N4CCC[C@H]4C)CO3)CC2)C1)C1CCOC1 (stereo partly drawn) [Example 207, 5-Fluoro-N-isopropyl-2-((4-(7-(((2S,5R)-5-(((R)-2-methylpyrrolidine)-1-sulfonamido)tetrahydro-2H-pyran-2-yl)methyl)-2,7-diazaspiro[3.5]nonan-2-yl)pyrimidin-5-yl)oxy)-N-((S)-tetrahydrofuran-3-yl)benzamide]	< 100
CC[S@@](=N)(=O)N[C@@H]1CC[C@@H](CN2CCC3(CC2)CN(c2ncncc2Oc2ccc(F)cc2C(=O)N(C(C)C)C(C)C)C3)OC1 (single isomer, unassigned) [Example 226]	100 to 1000
CC[S@](=N)(=O)N[C@@H]1CC[C@@H](CN2CCC3(CC2)CN(c2ncncc2Oc2ccc(F)cc2C(=O)N(C(C)C)C(C)C)C3)OC1 (single isomer, unassigned) [Example 227]	< 100
CC(C)N(CC(F)F)C(=O)c1cc(F)ccc1Oc1cncnc1N1CC2(CCN(C[C@@H]3CC[C@@H](NS(=O)(=O)N4CC(O)C4)CO3)CC2)C1 [Example 237, N-(2,2-Difluoroethyl)-5-fluoro-2-((4-(7-(((2S,5R)-5-((3-hydroxyazetidine)-1-sulfonamido)tetrahydro-2H-pyran-2-yl)methyl)-2,7-diazaspiro[3.5]nonan-2-yl)pyrimidin-5-yl)oxy)-N-isopropylbenzamide]	< 100
Cc1nc(S(=O)(=O)N[C@@H]2CC[C@@H](CN3CCC4(CC3)CN(c3ncncc3Oc3ccc(F)cc3C(=O)N(C(C)C)[C@@H]3CCOC3)C4)OC2)cs1 [Example 133, 5-Fluoro-N-isopropyl-2-((4-(7-(((2S,5R)-5-((2-methylthiazole)-4-sulfonamido)tetrahydro-2H-pyran-2-yl)methyl)-2,7-diazaspiro[3.5]nonan-2-yl)pyrimidin-5-yl)oxy)-N-((R)-tetrahydrofuran-3-yl)benzamide]	< 100
CC(C)N(C)C(=O)c1cc(F)ccc1Oc1cncnc1N1CC2(CCN(C[C@@H]3CC[C@@H](NS(=O)(=O)c4cnn(C)c4)CO3)CC2)C1 [Example 139, 5-Fluoro-N-isopropyl-N-methyl-2-((4-(7-(((2S,5R)-5-((1-methyl-1H-pyrazole)-4-sulfonamido)tetrahydro-2H-pyran-2-yl)methyl)-2,7-diazaspiro[3.5]nonan-2-yl)pyrimidin-5-yl)oxy)benzamide]	100 to 1000
CCS(=O)(=O)N[C@@H]1CC[C@@H](CN2CCC3(CC2)CN(c2ncncc2Oc2ccc(F)cc2C(=O)N(C(C)C)[C@H]2[C@@H]4COC[C@@H]42)C3)OC1 [Example 253, N-((1R,5S,6r)-3-Oxabicyclo[3.1.0]hexan-6-yl)-2-((4-(7-(((2S,5R)-5-(ethylsulfonamido)tetrahydro-2H-pyran-2-yl)methyl)-2,7-diazaspiro[3.5]nonan-2-yl)pyrimidin-5-yl)oxy)-5-fluoro-N-isopropylbenzamide]	100 to 1000
COC[C@H]1CCCN1S(=O)(=O)N[C@@H]1CC[C@@H](CN2CCC3(CC2)CN(c2ncncc2Oc2ccc(F)cc2C(=O)N(C(C)C)C(C)C)C3)OC1 [Example 212, 5-Fluoro-N,N-diisopropyl-2-((4-(7-(((2S,5R)-5-(((R)-2-(methoxymethyl)pyrrolidine)-1-sulfonamido)tetrahydro-2H-pyran-2-yl)methyl)-2,7-diazaspiro[3.5]nonan-2-yl)pyrimidin-5-yl)oxy)benzamide]	< 100
CC(C)N(CC(F)F)C(=O)c1cc(F)ccc1Oc1cncnc1N1CC2(CCN(C[C@@H]3CC[C@@H](NS(=O)(=O)N(C)CCOCc4ccccc4)CO3)CC2)C1 [Example 238]	< 100
CC(C)N(CC(F)F)C(=O)c1cc(F)ccc1Oc1cncnc1N1CC2(CCN(C[C@@H]3CC[C@@H](NS(=O)(=O)C4CCOCC4)CO3)CC2)C1 [Example 98, N-(2,2-Difluoroethyl)-5-fluoro-N-isopropyl-2-((4-(7-(((2S,5R)-5-((tetrahydro-2H-pyran)-4-sulfonamido)tetrahydro-2H-pyran-2-yl)methyl)-2,7-diazaspiro[3.5]nonan-2-yl)pyrimidin-5-yl)oxy)benzamide]	< 100
